The results in this text go back to PMC7407158, “Reprogramming of the Antibacterial Drug Vancomycin Results in Potent Antiviral Agents Devoid of Antibacterial Activity” (Pharmaceuticals, 2020).

Values after ≈ are worked out from the molar mass of the structure shown.

The subject of series [1] is yellow fever virus (vaccine strain 17D). As to the kind of experiment: microbe, parasite or virus in culture. It counts as cell-based. The settings on record: Vero, read-out: Antiviral EC50 Yellow Fever Virus.
Series [2] is described as follows: in vitro. The following applies: human.
Series [3] deals with Influenza A/H3N2 (A/Victoria/361/11). In words: Influenza CPE reduction in MDCK cells, MTS assay, A/H3N2. It counts as cell-based. The settings on record: Influenza A virus, H3N2, MDCK, read-out: Antiviral EC50 Influenza A/H3N2.
Series [4] deals with respiratory syncytial virus (RSV, strain Long). In words: CPE reduction, MTS assay, RSV in HeLa cells. The settings on record: human respiratory syncytial virus, read-out: Antiviral EC50 RSV. It counts as cell-based.
Series [5] in a line: in vitro. The following applies: African green monkey.
The subject of series [6] is Influenza B (B/Ned/537/05). In words: Influenza CPE reduction in MDCK cells, MTS assay, influenza B. It counts as cell-based. The settings on record: Influenza B virus, inhibition of virus-induced CPE by MTS assay, read-out: Antiviral EC50 Influenza B.
The test system of series [7] is Influenza A/H1N1 (A/Ned/378/05). In words: Influenza CPE reduction in MDCK cells, MTS assay, A/H1N1. The settings on record: Influenza A virus, H1N1, MDCK, read-out: Antiviral EC50 Influenza A/H1N1. Type of series: cell-based.
Series [8] is described as follows: in vitro. The settings on record: human. This is another data set of the same source.
Series [9] relates to HEL, human embryonic lung fibroblast cells. The following applies: read-out: CC50 HEL; mock-infected HEL cells, MTS assay.
Series [10] deals with E. faecalis ATCC 29212. In words: Broth microdilution MIC, E. faecalis ATCC 29212. Type of series: cell-based. The following applies: Enterococcus faecalis, ATCC29212; E. faecalis ATCC 29212; broth microdilution; read-out: In Vitro MIC. How it is done: (§1) Antibacterial tests were carried out by the broth microdilution method on a panel of eight Gram-positive bacterial strains, using vancomycin and teicoplanin as reference compounds.

Series [11] relates to S. epidermidis mecA. In words: Broth microdilution MIC, S. epidermidis mecA. It counts as cell-based. The settings on record: Staphylococcus epidermidis, read-out: In Vitro MIC. How it is done: as §1
For series [12], the system named is E. faecalis 15,376 VanA. As to the kind of experiment: Broth microdilution MIC, E. faecalis 15,376 VanA. It counts as cell-based. The following applies: Enterococcus faecalis, read-out: In Vitro MIC. How it is done:
as §1

For series [13], the system named is A/PR/8/34 virus. Type of series: cell-based, Influenza A virus.
Series [14] has as its system S. aureus MSSA ATCC 29213. In words: Broth microdilution MIC, S. aureus MSSA ATCC 29213. It counts as cell-based. The settings on record: Staphylococcus aureus; S. aureus MSSA ATCC 29213; broth microdilution; read-out: In Vitro MIC. How it is done:
as §1

Series [15] deals with influenza A or B viruses. As to the kind of experiment: Anti-influenza virus activity in MDCK cells, MTS assay, overall for the three influenza A or B viruses. Type of series: cell-based, Influenza A and B viruses.
Series [16] relates to HeLa, human cervix carcinoma cells. The settings on record: read-out: CC50 HeLa; mock-infected HeLa cells, MTS assay.
Series [17] concerns human coronavirus 229E. Type of series: cell-based. The settings on record: 25 µM compound (non-toxic concentration); HEL cells.
Series [18] deals with S. epidermidis ATCC 35984. In words: Broth microdilution MIC, S. epidermidis ATCC 35984. It counts as cell-based. The following applies: Staphylococcus epidermidis, ATCC35984; S. epidermidis ATCC 35984; broth microdilution; read-out: In Vitro MIC. How it is done: as §1
Series [19] has as its system S. aureus MRSA ATCC 33591. As to the kind of experiment: Broth microdilution MIC, S. aureus MRSA ATCC 33591. It counts as cell-based. The following applies: Staphylococcus aureus, read-out: In Vitro MIC. How it is done: as §1
For series [20], the system named is MDCK cells. The settings on record: read-out: CC50 (50% cytotoxic concentration), mock-infected, MTS cell viability assay, three days.
Series [21] concerns B. subtilis ATCC 6633. In words: Broth microdilution MIC, B. subtilis ATCC 6633. It counts as cell-based. The following applies: Bacillus subtilis, ATCC6633; B. subtilis ATCC 6633; broth microdilution; read-out: In Vitro MIC. How it is done:
as §1

The test system of series [22] is Vero, African Green monkey kidney cells. The following applies: read-out: CC50 Vero; mock-infected Vero cells, MTS assay.
The subject of series [23] is E. faecalis ATCC 51,299 VanB. As to the kind of experiment: Broth microdilution MIC, E. faecalis ATCC 51,299 VanB. Type of series: cell-based. The settings on record: Enterococcus faecalis, ATCC51, read-out: In Vitro MIC. How it is done:
as §1

Series [24] concerns human coronavirus 229E. As to the kind of experiment: Coronavirus 229E virus yield reduction, RT-qPCR of viral RNA in supernatant, HEL cells. Type of series: cell-based. The following applies: day 4 p.i. How it is done: To assess inhibition of human coronavirus 229E replication, HEL cells were infected and treated with 1:2 serial compound dilutions. The plate contained three virus controls (receiving no compound) and two cell controls (receiving no virus and no compound). At day 4 p.i., supernatants were frozen at −80 °C to determine the virus yield by one-step RT-qPCR assay. Two microliters supernatant was mixed with 11 µl lysis mix containing lysis enhancer and resuspension buffer at a 1:10 ratio (CellsDirect One-Step RT-qPCR kit; Invitrogen), and heated for 10 min at 75 °C. Five microliters of lysate was transferred to a PCR plate containing 9.75 µl RT-qPCR mix (CellsDirect One-Step RT-qPCR) and 0.25 µl Superscript III RT/Platinum Taq enzyme, and coronavirus-229E N-gene specific primers and probe (forward primer 5′-[…] -3′; reverse primer 5′-[…] -3′; probe 5′-FAM-[…]-ZEN-[…] -IBFQ-3′). The RT-qPCR program consisted of 15 min at 50 °C, 2 min at 95 °C, and 50 cycles of 15 s at 95 °C and 45 s at 60 °C. An N-gene plasmid standard was included for absolute quantification.

Series [25] deals with Zika virus (strain MR766). As to the kind of experiment: CPE reduction, MTS assay, Zika virus in Vero cells. Type of series: cell-based. The following applies: protection against virus-induced CPE, read-out: Antiviral EC50 Zika Virus.

In the case of `NC(=O)c1ncn([C@@H]2O[C@H](CO)[C@@H](O)[C@H]2O)n1` [Ribavirin], the EC50 in [1] came to 119 µM; in [3] it was 6.4 µM; in series [4] it was 5 µM; in series [6], 7.2 µM; in series [7] it was 7 µM. The CC50 in [2], in series [5] and in [8] was greater than 250 µM throughout.
For the molecule `CCCCCCCCCCOCc1cn(CCOCCOCCOCCOCc2cn(C3C(=O)NC(CC(N)=O)C(=O)NC4C(=O)NC5C(=O)NC(C(=O)NC(C(=O)O)c6cc(O)cc(O)c6-c6cc5ccc6O)C(O)c5ccc(c(Cl)c5)Oc5cc4cc(c5O)Oc4ccc(cc4Cl)C3O)nn2)nn1` (stereo not drawn) [Compound 6], the CC50 was greater than 100 µM in series [9], greater than 100 µM in [16], 41 µM in [20] and greater than 100 µM in series [22]. Moreover, the MIC came out at 32 µg/mL (≈ 21.4 µM) in series [10]; 32 µg/mL (≈ 21.4 µM) in series [11]; 128 µg/mL (≈ 85.5 µM) in series [12]; 128 µg/mL (≈ 85.5 µM) in series [14]; 32 µg/mL (≈ 21.4 µM) in [18]; 128 µg/mL (≈ 85.5 µM) in [19]. Further, the values for the MIC in [21] and in [23] were 32 µg/mL (≈ 21.4 µM) and 128 µg/mL (≈ 85.5 µM), respectively. In addition, the “virus-induced cytopathic effect (CPE) upon microscopic inspection” value in series [13] was “no virus-induced cytopathic effect (CPE) was observed”. Moreover, the “anti-influenza virus activity (in words)” value in [15] is on record as “robust activity”. Further, the “coronavirus 229E-induced cytopathicity observed microscopically” value in [17] is given as “no coronavirus 229E-induced cytopathicity could be observed microscopically”. Moreover, the “reduction of the viral RNA copy number in the supernatant” value in [24] (25 µM compound) is recorded as 1000 fold. In addition, the “EC99 value for reduction of virus yield” value in series [24] (RT-qPCR of supernatant) was determined as 20 µM.
Take `COc1c(C)c2c(c(O)c1C/C=C(\C)CCC(=O)O)C(=O)OC2` [Mycophenolic acid]: the EC50 in series [1] was 0.7 µM; in series [25], 0.8 µM. Further, the CC50 in series [2], in series [5] and in series [8] was greater than 100 µM throughout.
